Experimental data from US20140018426A1, “FOOD OR BEVERAGE COMPOSITION FORTIFIED WITH THYRONAMINES AND/OR THYRONAMINE PRECURSORS” (priority 2009, published 2014).
Several values for one entry are separate records, joined by “and”; a condition that tells them apart may be missing. Identical values can stand only once. Like-named read-outs stand apart in the source and are kept apart here.

How the values were obtained:
mice [1] = details: cited from earlier work
mice [2] = details: cited from earlier work; remark: listed apart in the source
[3] = target: alpha-2A adrenergic receptor (Homo sapiens, UniProt P08913); details: cited from earlier work
[4] = test system: vesicular monoamine transporter; details: cited from earlier work
[5] = target: norepenephrin transporter (Homo sapiens, UniProt P23975); details: cited from earlier work
dopamine transporter = dopamine transporter (Homo sapiens, UniProt Q01959); details: cited from earlier work
[6] = test system: rat working heart preparation; details: cited from earlier work
[7] = target: serotonin 5HT-2c receptor (Homo sapiens, UniProt P28335); details: cited from earlier work
[8] = test system: Siberian hamsters (Phodopus sungorus); details: cited from earlier work
mice [9] = details: single dose T1AM (normal 0.83); cited from earlier work
[10] = target: trace amine-associated receptor 1 (TAAR1) (Homo sapiens, UniProt Q96RJ0); details: cited from earlier work
[11] = test system: middle cerebral artery occlusion (MCAO) stroke model in mice; details: cited from earlier work
serotonin transporter = serotonin transporter (Homo sapiens, UniProt P31645); details: cited from earlier work
[12] = Body weight, C57 mice on Western Diet, daily oral T2; type: in vivo
Source text: (§1) Mice in the study were fed a standard lab chow referred to as the “Western Diet.” The overall level of fat and the saturated nature of the fat are representative diets typical in the industrialized west that are linked to risk of cardiovascular disease in humans. The formula is used primarily with genetically manipulated rodent models that are susceptible to high cholesterol and cardiovascular disease. The diet may also be useful in diet-induced obesity, diabetes, and metabolic syndrome models. High cholesterol, obesity, and diabetes are each associated increased risk for cardiovascular disease. The composition of the Western Diet is shown below in Table 1.
(§2) C57 is a wild-type strain, LDLr+/− are a strain carrying one functional copy of the LDLr gene, and the LDLrO animals are total LDLr knockouts. The LDLr gene encodes for the LDL receptor protein, which is responsible for scavenging LDL with bound cholesterol from the blood and transporting it into cells. Both heterozygous and homozygous LDLr knockout animals develop very high serum cholesterol levels and are considered to be a good model for heterozygous and homozygous familial hypercholesterolemia in humans.
(§3) LDLr knockout animals have zero LDL receptor function. […] This effect was independent of weight loss.

[13] = Body weight, LDLr knockout mice on Western Diet, daily oral T2; type: in vivo
Source text: as §1, §2, §3

LDLr0 [14] = experiment: Serum triglycerides, LDLr knockout mice on Western Diet, daily oral T2; type: in vivo; details: low and high dose T2
Source text: as §1, §2, §3

[15] = test system: thyroid receptor homodimer; details: in contrast to T3; cited from earlier work
[16] = test system: growth hormone gene expression; details: cited from earlier work
C57 [17] = experiment: Serum triglycerides, C57 mice on Western Diet, daily oral T2; type: in vivo; details: C57, low and high dose T2
Source text: as §1, §2, §3

C57 [18] = experiment: Blood Sugar (serum glucose), C57 mice on Western Diet, daily oral T2; type: in vivo; details: for Blood Sugar, individual animal: C57 mice, Western Diet
Source text: as §1, §2, §3

LDLr+/− [19] = experiment: Serum triglycerides, LDLr+/− mice on Western Diet, daily oral T2; type: in vivo; details: low and high dose T2
Source text: as §1, §2, §3

[20] = Body weight, LDLr+/− mice on Western Diet, daily oral T2; type: in vivo; parameters: Body weight, Ave: unit not given here
Source text: as §1, §2, §3

LDLr0 [21] = experiment: Blood Sugar (serum glucose), LDLr knockout mice on Western Diet, daily oral T2; type: in vivo; details: for Blood Sugar, individual animal: LDLr0 mice, Western Diet
Source text: as §1, §2, §3

LDLr+/− [22] = experiment: Blood Sugar (serum glucose), LDLr+/− mice on Western Diet, daily oral T2; type: in vivo; details: for Blood Sugar, individual animal: LDLr+/− mice, Western Diet
Source text: as §1, §2, §3

TR β gene expression = details: cited from earlier work
rats = details: 250 mcg/kg p.o. q.d. for 30 days, compared to controls; cited from earlier work
TR α1, β1 and β2 = details: in vitro studies; cited from earlier work
[23] = test system: hypercholesterolemic patients; details: cited from earlier work; for decrease in body weight: 300 mg daily for 8 months

Sequence of dopamine transporter (Q01959 whole entry): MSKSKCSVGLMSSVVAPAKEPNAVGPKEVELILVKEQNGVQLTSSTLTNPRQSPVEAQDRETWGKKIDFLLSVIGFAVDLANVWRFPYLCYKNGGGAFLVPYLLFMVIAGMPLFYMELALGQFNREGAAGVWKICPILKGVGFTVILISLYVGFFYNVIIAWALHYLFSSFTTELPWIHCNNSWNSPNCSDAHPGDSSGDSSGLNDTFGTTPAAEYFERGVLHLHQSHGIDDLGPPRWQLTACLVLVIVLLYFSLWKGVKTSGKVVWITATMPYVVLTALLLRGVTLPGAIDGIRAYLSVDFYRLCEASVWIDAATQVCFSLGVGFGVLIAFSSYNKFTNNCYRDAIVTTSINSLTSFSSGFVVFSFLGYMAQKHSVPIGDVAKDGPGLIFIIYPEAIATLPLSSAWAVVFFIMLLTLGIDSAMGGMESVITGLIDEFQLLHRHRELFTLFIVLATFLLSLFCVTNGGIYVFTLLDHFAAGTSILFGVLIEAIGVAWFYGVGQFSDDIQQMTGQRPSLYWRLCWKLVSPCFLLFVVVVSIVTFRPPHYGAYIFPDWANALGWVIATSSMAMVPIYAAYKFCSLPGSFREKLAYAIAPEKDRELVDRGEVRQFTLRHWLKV
Sequence of alpha-2A adrenergic receptor (P08913 whole entry): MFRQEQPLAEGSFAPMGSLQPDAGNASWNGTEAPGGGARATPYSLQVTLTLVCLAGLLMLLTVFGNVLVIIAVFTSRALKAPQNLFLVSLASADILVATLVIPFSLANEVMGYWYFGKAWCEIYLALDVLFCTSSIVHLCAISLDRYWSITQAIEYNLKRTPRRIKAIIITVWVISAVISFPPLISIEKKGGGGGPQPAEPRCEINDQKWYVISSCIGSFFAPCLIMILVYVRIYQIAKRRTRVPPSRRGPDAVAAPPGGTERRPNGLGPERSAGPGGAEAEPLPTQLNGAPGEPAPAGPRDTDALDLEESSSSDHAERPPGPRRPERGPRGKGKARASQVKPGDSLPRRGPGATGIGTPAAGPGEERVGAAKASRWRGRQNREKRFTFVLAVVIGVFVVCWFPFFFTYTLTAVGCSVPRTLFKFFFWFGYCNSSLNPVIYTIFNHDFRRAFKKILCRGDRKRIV
Sequence of serotonin 5HT-2c receptor (P28335 33-458): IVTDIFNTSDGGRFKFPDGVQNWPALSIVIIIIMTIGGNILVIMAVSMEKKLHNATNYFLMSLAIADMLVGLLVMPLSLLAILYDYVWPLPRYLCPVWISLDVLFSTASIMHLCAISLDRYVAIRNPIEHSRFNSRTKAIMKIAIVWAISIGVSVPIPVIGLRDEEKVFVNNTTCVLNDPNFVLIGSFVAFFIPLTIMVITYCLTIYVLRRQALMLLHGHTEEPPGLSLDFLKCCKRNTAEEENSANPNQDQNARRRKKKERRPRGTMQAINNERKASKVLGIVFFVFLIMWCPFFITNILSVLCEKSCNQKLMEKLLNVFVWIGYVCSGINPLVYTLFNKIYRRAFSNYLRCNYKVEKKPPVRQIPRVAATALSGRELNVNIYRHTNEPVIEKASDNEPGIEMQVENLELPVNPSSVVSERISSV
Sequence of serotonin transporter (P31645 whole entry): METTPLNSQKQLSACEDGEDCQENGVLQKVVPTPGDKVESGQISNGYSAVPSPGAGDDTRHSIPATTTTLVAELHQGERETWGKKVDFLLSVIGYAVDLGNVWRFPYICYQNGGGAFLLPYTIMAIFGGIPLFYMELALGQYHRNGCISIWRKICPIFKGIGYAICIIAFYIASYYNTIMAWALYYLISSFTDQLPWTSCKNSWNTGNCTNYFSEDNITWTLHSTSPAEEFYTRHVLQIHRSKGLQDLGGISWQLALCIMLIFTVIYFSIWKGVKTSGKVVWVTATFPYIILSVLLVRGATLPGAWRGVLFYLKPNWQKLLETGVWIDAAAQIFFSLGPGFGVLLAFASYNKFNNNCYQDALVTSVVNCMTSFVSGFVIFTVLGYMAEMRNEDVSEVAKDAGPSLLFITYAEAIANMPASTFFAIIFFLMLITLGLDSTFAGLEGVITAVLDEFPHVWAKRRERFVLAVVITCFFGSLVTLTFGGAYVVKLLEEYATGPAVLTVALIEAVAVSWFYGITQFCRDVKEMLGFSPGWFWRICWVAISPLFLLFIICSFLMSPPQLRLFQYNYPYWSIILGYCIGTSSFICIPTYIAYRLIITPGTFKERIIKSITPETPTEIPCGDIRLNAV
Sequence of norepenephrin transporter (P23975 whole entry): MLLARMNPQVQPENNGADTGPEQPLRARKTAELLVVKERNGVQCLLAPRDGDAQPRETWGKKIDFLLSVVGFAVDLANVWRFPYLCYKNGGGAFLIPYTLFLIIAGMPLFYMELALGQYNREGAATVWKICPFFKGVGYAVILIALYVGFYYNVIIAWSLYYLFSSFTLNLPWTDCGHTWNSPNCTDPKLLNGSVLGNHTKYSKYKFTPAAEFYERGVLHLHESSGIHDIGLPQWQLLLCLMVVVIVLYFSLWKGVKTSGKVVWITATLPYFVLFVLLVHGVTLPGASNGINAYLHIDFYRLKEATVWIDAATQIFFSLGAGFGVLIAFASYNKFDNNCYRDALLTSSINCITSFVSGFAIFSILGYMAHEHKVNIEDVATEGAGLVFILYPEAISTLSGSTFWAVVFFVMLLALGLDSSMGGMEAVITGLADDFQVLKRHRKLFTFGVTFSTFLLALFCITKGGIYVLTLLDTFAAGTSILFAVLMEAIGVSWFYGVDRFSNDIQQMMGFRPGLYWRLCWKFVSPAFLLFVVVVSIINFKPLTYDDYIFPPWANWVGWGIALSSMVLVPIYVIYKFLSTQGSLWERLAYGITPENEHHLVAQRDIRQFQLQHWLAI
Sequence of trace amine-associated receptor 1 (TAAR1) (Q96RJ0 whole entry, species assumed): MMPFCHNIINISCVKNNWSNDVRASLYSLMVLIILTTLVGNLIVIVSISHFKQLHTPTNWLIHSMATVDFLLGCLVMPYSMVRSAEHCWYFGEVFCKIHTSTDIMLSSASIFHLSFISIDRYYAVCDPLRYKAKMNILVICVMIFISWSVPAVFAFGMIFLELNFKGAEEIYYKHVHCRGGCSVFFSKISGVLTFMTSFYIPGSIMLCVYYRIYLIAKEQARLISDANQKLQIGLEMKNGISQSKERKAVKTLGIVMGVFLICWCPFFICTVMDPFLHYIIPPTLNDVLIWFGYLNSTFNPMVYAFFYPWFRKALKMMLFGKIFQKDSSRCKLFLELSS

## NCCc1ccc(Oc2ccc(O)cc2)c(I)c1 [T1AM, 3-iodothyronamine]
Mice [1]; mice, depending on the T1AM dose
  time for body temperature to return to normal: 4 to 6 h
Mice [1]; mice, injection
  drop in body temperature: about 10 °C
Mice [1]; mice
  time of body temperature nadir after injection: about 1 hour
Mice [2]
  time for blood glucose to return to baseline: 3 to 4 h
  time of blood glucose peak after the injection: 1 h
Mice [2]; injection, at peak
  increased blood glucose: 2-5 fold
[3]
  alpha-2A adrenergic receptor activity: agonist
[4]
  vesicular monoamine transporter function: binds and inhibits
[5]
  norepenephrin transporter function: binds and inhibits
Dopamine transporter
  dopamine transporter function: binds and inhibits
[6]; rat working heart at 37° C., compound in perfusion buffer
  heart rate and systolic aortic pressure: large and immediate decreases
[7]
  serotonin 5HT-2c receptor activity: agonist
[8]; Siberian hamsters, single dose T1AM (normal 0.90)
  respiratory quotient (RQ) value: approximately 0.7
[8]; Siberian hamsters
  time of urine ketone content peak post-injection: 16 h
[8]; in vivo
  time to complete RQ shift post-injection: about 4.5 hours
[8]; summer acclimatized Siberian hamsters
  persistence of 0.7 RQ after the T1AM injection: at least 24 h
Mice [9]
  respiratory quotient (RQ) value: approximately 0.7
[10]
  TAAR1 activity: potent agonist
[11]
  reduction of infarct volume: 40%
Serotonin transporter
  serotonin transporter function: binds and inhibits

## N[C@@H](Cc1cc(I)c(Oc2ccc(O)cc2)c(I)c1)C(=O)O [T2, (2S)-2-amino-3-[4-(4-hydroxyphenoxy)-3,5-diiodophenyl]propanoic acid]
[12]; C57, High Dose T2, Day 1, group average
  Body weight, Ave: 28.1 g
[12]; C57, High Dose T2, Day 1, individual animal
  Body weight: 29.6 (2×) and 24.9 and 26.7
[12]; C57, High Dose T2, Day 2, individual animal, in g (unit assumed)
  Body weight: 29.5 and 25.8 and 29.7
[12]; C57, High Dose T2, Day 3, individual animal, in g (unit assumed)
  Body weight: 25.1 and 29.9 and 27.2
[12]; C57, High Dose T2, Day 4, individual animal, in g (unit assumed)
  Body weight: 29.1 and 28.7
[12]; C57, High Dose T2, Day 5, individual animal, in g (unit assumed)
  Body weight: 29.1 and 28.5
[12]; C57, Low Dose T2, Day 2, individual animal
  Body weight: 24.9
[12]; C57, Low Dose T2, Day 4, individual animal
  Body weight: 25.1
[12]; C57, Low Dose T2, Day 6, individual animal
  Body weight: 29.9 and 24.8 and 28.7
[12]; C57, low and high dose T2
  effect on weight gain: did not affect
[13]; LDLr0, High Dose T2, Day 1, individual animal, in g (unit assumed)
  Body weight: 27.4
[13]; LDLr0, High Dose T2, Day 2, individual animal, in g (unit assumed)
  Body weight: 23.1 and 24.8
[13]; LDLr0, High Dose T2, Day 3, individual animal, in g (unit assumed)
  Body weight: 22.8
[13]; LDLr0, High Dose T2, Day 4, individual animal, in g (unit assumed)
  Body weight: 24.8
[13]; LDLr0, High Dose T2, Day 5, individual animal, in g (unit assumed)
  Body weight: 23.1
[13]; LDLr0, Low Dose T2, Day 6, individual animal
  Body weight: 23.1
[13]; LDLr knockout, low and high dose T2
  effect on weight gain: did not affect
LDLr0 [14]
  effect on serum triglyceride levels: did not affect
[15]
  effect on thyroid receptor homodimer formation: no effect
[16]
  potency relative to T3 in increasing growth hormone gene expression: 1/100
C57 [17]
  effect on serum triglyceride levels: did not affect
C57 [18]; 1 Week High Dose T2
  Blood Sugar, individual animal: 74 and 120 and 92
C57 [18]; 1 Week Low Dose T2
  Blood Sugar, individual animal: 190 and 120
C57 [18]; all genetic groups (C57), high doses of T2, vs controls
  lower blood sugar levels, average: 45-50%
LDLr+/− [19]
  effect on serum triglyceride levels: did not affect
[20]; High Dose T2, Day 1, individual animal, in g (unit assumed)
  Body weight: 31.4
[20]; High Dose T2, Day 2, individual animal, in g (unit assumed)
  Body weight: 31.0 and 29.1 and 29.9
[20]; High Dose T2, Day 4, individual animal, in g (unit assumed)
  Body weight: 29.0 and 27.9
[20]; Low Dose T2, Day 2, group average
  Body weight, Ave: 28.1
[20]; Low Dose T2, Day 2, individual animal
  Body weight: 282
[20]; Low Dose T2, Day 3, individual animal
  Body weight: 29.7 and 31.4
[20]; Low Dose T2, Day 4, individual animal
  Body weight: 27.4
[20]; Low Dose T2, Day 5, individual animal
  Body weight: 29.5
[20]; Low Dose T2, Day 6, individual animal
  Body weight: 29.1
[20]; Low Dose T2, Day 7, individual animal
  Body weight: 31.0 and 29.6 (2×) and 28.2
[20]; low and high dose T2
  effect on weight gain: did not affect
LDLr0 [21]; 1 Week High Dose T2
  Blood Sugar, individual animal: 87
LDLr0 [21]; 1 Week Low Dose T2
  Blood Sugar, individual animal: 54 and 79
LDLr0 [21]; all genetic groups (LDLr knockout), high doses of T2, vs controls
  lower blood sugar levels, average: 45-50%
LDLr+/− [22]; 1 Week High Dose T2
  Blood Sugar, individual animal: 99 and 94 and 80
LDLr+/− [22]; 1 Week Low Dose T2
  Blood Sugar, individual animal: 210
LDLr+/− [22]; all genetic groups (LDLr+/−), high doses of T2, vs controls
  lower blood sugar levels, average: 45-50%
TR β gene expression
  less potent than T3 in decreasing TR β gene expression: 50%
rats
  decrease body weight: 13%
  decrease hepatic fat mass: 50%
  increase hepatic fat oxidation: 42%
  lower cholesterol: 18%
  lower serum triglycerides: 52%

## N[C@@H](Cc1cc(I)c(Oc2ccc(O)c(I)c2)c(I)c1)C(=O)O [T3, (2S)-2-amino-3-[4-(4-hydroxy-3-iodophenoxy)-3,5-diiodophenyl]propanoic acid]
TR α1, β1 and β2
  affinity for TR α1, β1 and β2, fold greater than that of T2: 40-500 fold

## N[C@H](Cc1cc(I)c(Oc2ccc(O)cc2)c(I)c1)C(=O)O [3,5-D-T2]
[23]; 300 mg daily
  patients with coronary artery disease with increased anginal symptoms: 7 of 13
[23]; at 20 weeks, 300 mg daily
  total serum cholesterol decrease: 20%
[23]; euthyroid subjects
  decrease in body weight: 5%
[23]; human, in vivo
  effect of doses of less than 250 mg/day: ineffective
[23]; hypothyroid patients
  decrease in body weight: 8%
[23]; increase from 76, 300 mg daily
  mean heart rate on treatment: 88 beats per minute

## NCCc1ccc(Oc2ccc(O)cc2)cc1 [T0AM, thyronamine]
Mice [1]; similar results reported as for T1AM
  potency on body temperature compared with T1AM: less potent
[6]; rat working heart preparation
  potency as compared to T1AM (fold less potent): about 10 fold
